From ChEMBL document CHEMBL5143734, “Seco-Lupane Triterpene Derivatives Induce Ferroptosis through GPX4/ACSL4 Axis and Target Cyclin D1 to Block the Cell Cycle” (J Med Chem, 2022)

What was measured:
Assay type in all cases: functional, cell-based
[1] = test system: A549; assay: Cytotoxicity against human A549 cells assessed as reduction in cell viability by CCK-8 assay
[2] = test system: PC-3M; assay: Cytotoxicity against human PC-3M cells assessed as reduction in cell viability by CCK-8 assay
[3] = test system: PANC-1; assay: Cytotoxicity against human PANC-1 cells assessed as reduction in cell viability by CCK-8 assay
[4] = test system: MCF7; assay: Cytotoxicity against human MCF7 cells assessed as reduction in cell viability by CCK-8 assay
[5] = test system: HepG2; assay: Cytotoxicity against human HepG2 cells assessed as reduction in cell viability by CCK-8 assay

Row | Compound | IC50 [1] [µM] | IC50 [2] [µM] | IC50 [3] [µM] | IC50 [4] [µM] | IC50 [5] [µM]
1 | C=C(C)[C@@H]1CC[C@]2(C(=O)OCCCCCCCCCCn3ccnc3)CC[C@]3(C)[C@H](C[C@H]4OC(=O)C[C@@H](O)[C@]5(C)[C@@H]4[C@@]3(C)CC[C@H]5C(=C)C)[C@@H]12 | 17.2 | 11.8 | 11.3 | 44.9 | 4.23
2 | C=C(C)[C@@H]1CC[C@]2(C(=O)OCCCn3cncn3)CC[C@]3(C)[C@H](C[C@H]4OC(=O)C[C@@H](O)[C@]5(C)[C@@H]4[C@@]3(C)CC[C@H]5C(=C)C)[C@@H]12 | 45.2 | 34 | 140 | 51.2 | > 200
3 | C=C(C)[C@@H]1CC[C@]2(C(=O)OCCCn3ccnc3)CC[C@]3(C)[C@H](C[C@H]4OC(=O)C[C@@H](O)[C@]5(C)[C@@H]4[C@@]3(C)CC[C@H]5C(=C)C)[C@@H]12 | 55.5 | 24.7 | 89.1 | 48.6 | > 200
